# Measured values: ChEMBL document CHEMBL3507680, “University of Dundee, Gates Library screen for HepG2 cell viability”
# Test: Human HepG2 cell viability assay in 384 well format
# Format: toxicity, cell-based
# Design: dose 125 nL, time 70.5 hour; concentration not given beside the values
# Conditions: HepG2 cells, read-out: Inhibition
row,SMILES,cytotoxicity at 70.5 h [%]
1,CC(c1ccccc1)N(C)C(=O)CN1CCN(c2cnccn2)CC1 (stereo not given),-16.2
2,Cc1ccc(-c2cc(C(=O)N(C)Cc3noc4c3CCCC4)[nH]n2)s1,21.6
3,COCCN1CCCN(C(=O)NC(C)Cn2cccn2)CC1 (stereo not given),-14.2
4,CCN1CCCC1CNCc1cc2cc(OC)c(OC)cc2[nH]c1=O (stereo not given),-1.47
5,CC(Cn1cccn1)NC(=O)Nc1ccc(N2CCCC2)nc1 (stereo not given),10.1
6,CN(Cc1ccsc1)Cc1nc(-c2cnccn2)no1,-6.12
7,CCN(Cc1nc2c(cnn2C)c(=O)[nH]1)c1cccc(C)c1C,-0.49
8,Cc1ncsc1C(=O)NC1CCN(CC(=O)N(C)C(C)(C)C#N)CC1,28.1
9,COc1nc(C)c(C(=O)N(C)Cc2nc(-c3ccccn3)no2)s1,5.05
10,O=C(CSc1ccncc1)N1CCC2(CC1)c1ccccc1CC2O (stereo not given),-5.15
11,CC1CCc2nn(CCNC(=O)C3CCCC3)c(=O)cc2C1 (stereo not given),-3.14
12,Cc1ccc2c(ccn2CC(=O)NC[C@@H]2CCCN3CCCC[C@H]23)c1,-2.59
13,O=C(NCCc1nnc2n1CCC2)N1CCC2(CCCCC2)C1,-0.937
14,CS(=O)(=O)c1ncc(CN2CCCC(C(N)=O)C2)n1CC1CCCCC1 (stereo not given),-1.8
15,O=C(c1ccc(Cl)o1)N1CCCN(Cc2cscn2)CC1,-5.01
16,CC(CNS(C)(=O)=O)Oc1cccc(Cl)c1 (stereo not given),3.7
17,Cn1c(CN2CCCC(N3CCCCCC3)C2)cc(=O)n(C)c1=O (stereo not given),-4.65
18,CCC(NC(=O)c1nn(C)cc1C(=O)O)c1ccccc1 (stereo not given),-15.2
19,CC(C)c1nsc(N2CCCOCC2)n1,37.7
20,Nc1nnc(Cn2nnc(-c3ccccc3F)n2)s1,-12.8
21,COc1ccnc(N2CCN(C(=O)CN3CCCC3=O)CC2)n1,0.556
22,CCn1cc(NC(=O)C2CCN(Cc3noc(C4CC4)n3)CC2)cn1,-8.03
23,COC1CCC(N(C)c2ccnc(N(C)C)n2)CC1 (stereo not given),-7.23

row,SMILES,cytotoxicity at 70.5 h [%]
1,c1cc(C2CCN(c3cncnc3)CC2)ccn1,1.76
2,Cc1ccc(NC(=O)c2nc3c(s2)CCCN3C(C)C)cn1,-0.97
3,O=C1OCCC1N1CCN(c2cnccn2)CC1 (stereo not given),-8.4
4,Cc1cc(NC(=O)N2CCOC(C(N)=O)C2)ccc1Br (stereo not given),-12.3
5,Cc1cc(CN(C)CC(c2cccs2)N2CCOCC2)on1 (stereo not given),-7.4
6,Cc1cnn(CCNCc2csc(-c3ccsc3)n2)c1,-6.72
7,COc1cc(Cl)cc(C(=O)N2CCC3(CCCNC3)C2)c1 (stereo not given),-5.79
8,O=C(C[C@@H]1COC[C@H]2CN(Cc3cccnc3)C[C@@H]12)NCC1CC1,-4.39
9,CN(C)C(=O)C1CCCN1c1ccnc2ccsc12 (stereo not given),-7.45
10,CN(CCc1ccccc1)c1cnn(C)c(=O)c1Br,-15.5
11,CC1CCN(S(=O)(=O)NC(C)Cc2ccco2)CC1 (stereo not given),-4.62
12,COc1ccc(-n2ncc(C(C)NC3Cc4ccccc4C3)c2C)cc1 (stereo not given),5.61
13,CC1CN(C(=O)CN(Cc2ccccc2)C2CC2)CCO1 (stereo not given),-9.67
14,COC(=O)[C@@H]1C[C@H](NC(=O)c2cc(=O)[nH]c3ccc(C)cc23)CN1C,-13
15,CC1(C)CN(C(=O)c2ccccc2-n2cncn2)CC1(C)O (stereo not given),18.2
16,Cn1cc(CN2CC3(CCN(C(=O)c4cscn4)C3)C2)cn1,-7.98
17,CCC(CC)C(=O)NCc1c(C)nn(C)c1N1CCCN(C)CC1,22.5
18,CC(C)CN1CCN(S(=O)(=O)c2cn(C)cn2)[C@H]2CS(=O)(=O)C[C@H]21,-9.12
19,COC(=O)C1C=CCN1C(=O)c1cc(COc2ccccc2)[nH]n1 (stereo not given),-5.33
20,CN(C)CCn1ccnc1C1CCCN(c2ncc(Cl)cc2F)C1 (stereo not given),-3.65
21,Cc1cnc(N2CCCC(c3ccccc3)C2)nc1-c1ccnn1C (stereo not given),-8.04
22,CCn1nc(C)c(NC(=O)CN2CCN(C(C)=O)CC2)c1C,-10.9
23,CCc1noc(CN2CCN(C(=O)COC)CC2)n1,6.94

row,SMILES,cytotoxicity at 70.5 h [%]
1,COc1c(CNCc2ccc(N(C)C)nc2)c(C)nn1C,24.3
2,O=C(NCCNCC1CNc2ccnn2C1)c1ccc(F)cc1 (stereo not given),-6.67
3,CC(C)(C)NC(=O)C1CSCN1C(=O)CCc1ccco1 (stereo not given),-0.786
4,O=C(c1cc(Cn2ccc3ccccc32)[nH]n1)N1CCOCC1,-0.75
5,O=C(COC[C@]12COC[C@H]1CN(C1CCC1)C2)N1CCCC1,3.04
6,CCc1nnsc1C(=O)N1CCCN(Cc2ccc(C)cc2)CC1,-8.18
7,CS(=O)(=O)N1CC(c2ccnc(Nc3ccccn3)n2)C1,-3.95
8,Oc1cc(CCC2CCCCN2)cc(-c2cccnc2)c1 (stereo not given),-0.0954
9,Cc1nc(O)cc(C2CCN(C(=O)c3[nH]nc4c3CC(C)CC4)CC2)n1 (stereo not given),-11
10,c1ccc(-c2nnc(CNCC3CCCN3c3cccnn3)o2)cc1 (stereo not given),7.04
11,CCOc1ccc(Cl)c(C(=O)N2CCN(C(=O)OC)CC2)n1,-14.3
12,CC(C)(C)OC(=O)N1CCN(S(C)(=O)=O)C2(CCCCC2)C1,-1.8
13,CC(C)n1ccnc1CN1CCCN(C(=O)c2cccnc2O)CC1,23.5
14,COCCN1C[C@@H]2[C@@H](OC)CCN(Cc3cccs3)[C@@H]2C1,-1.71
15,COCC(=O)N1CCCn2c(CN3CCCC3)nnc2C1,-4.43
16,O[C@@]1(CNCCOc2ccccc2)CCCN2CCCC[C@@H]21,28
17,O=C(CCn1c(C(F)(F)F)cc2cccnc21)NC1CCCC1,-3.77
18,N#Cc1ccc(NCCCOCC2CCCO2)c(F)c1 (stereo not given),2
19,N#CCCN(CC1CCOC1)S(=O)(=O)c1cccc(Cl)c1 (stereo not given),-5.98
20,Cc1nc(CN2CCCC(c3nccs3)C2)cs1 (stereo not given),-0.693
21,COCCOc1ncccc1C(=O)Nc1c(C)cnn1CC1CC1,8.78
22,CCSc1ccccc1C(=O)N(CCOC)Cc1ccoc1,25
23,Cn1nc(C(=O)N2CCOCC2)cc1C(=O)Nc1ncc(Cl)cc1Cl,14.9

row,SMILES,cytotoxicity at 70.5 h [%]
1,Cc1cnn(C2CCCN(C(=O)Cc3ccc(C#N)cc3)C2)c1 (stereo not given),-2.96
2,CCOCC(O)CN1CCN(C(=O)c2ccncc2)CC1 (stereo not given),-3.55
3,N#CCCN(CCC#N)C(=O)COC1CCCCC1,-6.88
4,CN(Cc1ccccc1)c1cnn(CC2COCCO2)c(=O)c1 (stereo not given),-2.99
5,O=C(C1CCC1)N1CCN(C(=O)c2cnccn2)[C@H]2CS(=O)(=O)C[C@H]21,-11.7
6,c1cnc(N2CCCC(c3n[nH]c4ncccc34)C2)nc1 (stereo not given),-4.04
7,COc1ccccc1OC1CN(C(=O)C(c2ccccc2F)N(C)C)C1 (stereo not given),-0.928
8,COCCN1CCO[C@@H]2CN(C(=O)COc3ccc(C)cc3)C[C@@H]2C1,-8.74
9,Cc1ccc(S(=O)(=O)N2CCOCC2C#N)cc1Br (stereo not given),-6.92
10,Cc1nc(C)n(CC(C)C(=O)N2CCC(N3CCC(O)CC3)CC2)n1 (stereo not given),-3.14
11,c1ccc(-c2ncc3c(n2)C2(CCN(c4ncccn4)C2)COC3)cc1 (stereo not given),-2.35
12,O=C1c2cnc(N3CCCCC3)nc2CN1c1ccc2c(c1)OCO2,16.4
13,Cc1cccc(CNC(=O)c2cccnc2N)c1,18
14,O=C(c1cnn2c1OCCC2)N1CCC2(CC1)OCCO2,-1.08
15,c1cc(-c2cscn2)cc(N2CCC(NCCc3cccs3)CC2)c1,0.55
16,Cc1noc(C)c1CN1CCC2(CC1)NC(=O)CC2c1cnn(C)c1 (stereo not given),-8.52
17,N#CCCN1CCN(S(=O)(=O)c2ccc(Cl)s2)CC1,15.9
18,C[C@@H]1C(=O)NC[C@H]2CN(Cc3ccsc3)C[C@H]21,-2.8
19,CSCCC(NC(N)=O)C(=O)NCc1ccc(-n2cccn2)cc1 (stereo not given),-6.9
20,COc1ccc(Nc2nc(N)c(C(C)=O)s2)cc1OC,-12.7
21,Cc1cc(=O)n(CC(=O)Nc2ccc(Cl)cc2)nc1C,-2.9
22,Cn1cc(CN2CCOC(c3cccc(-c4cncnc4)n3)C2)cn1 (stereo not given),-5.7
23,COCC[C@]1(O)CCN(CC(=O)NCc2ccccn2)C[C@H]1C,5.51

row,SMILES,cytotoxicity at 70.5 h [%]
1,O=C(c1ccc(N2CCOCC2)nc1)N1CCCC(n2ccnc2)C1 (stereo not given),-3.02
2,O=C([C@@H]1CCS(=O)(=O)[C@@H]2CN(c3ncccn3)C[C@@H]21)N1CCOCC1,-1.98
3,CCC(CC)c1cc(C(=O)N2CCN(C(C#N)C(C)C)CC2)on1 (stereo not given),-6.08
4,CCC1CN(CCCO)c2ccccc2O1 (stereo not given),0.738
5,Cc1cc(NC(=O)NCC(C)N2CCc3ccccc32)no1 (stereo not given),-5.5
6,CC(C)COc1cncc(NCc2nnc3ccccn23)n1,-3.83
7,COC1CCN(C(=O)Cn2cccc(C(F)(F)F)c2=O)C1 (stereo not given),-8.78
8,Cc1noc(C)c1CN1CCC2(CC1)NC(=O)CC2c1ccncc1 (stereo not given),-9.41
9,CN(C)CCn1ccc2cc(NC(=O)NCc3ccon3)ccc21,-8.32
10,CCN1CC[C@@]2(C(=O)N3CCOCC3)CCN(C(=O)C(C)C)CC[C@@H]12,18.4
11,CCC(C)(NCc1ncc(C(C)C)o1)c1nccs1 (stereo not given),1.37
12,Cn1cccc(NC(=O)NCCc2cccc(O)c2)c1=O,9.38
13,Cc1cccc(COc2ccc(C(C)NC(=O)CNC(N)=O)cc2)c1 (stereo not given),-0.269
14,CC(NCc1ccc(F)cc1)c1ccc2[nH]c(=O)[nH]c2c1 (stereo not given),0.625
15,COCCCn1ccc(NC(=O)NCc2cccc(N(C)C)c2)n1,-5.16
16,O=C(c1cn2ccsc2n1)N1CCOCC(O)(CN2CCCC2)C1 (stereo not given),1.73
17,CN1CCN(c2ncccc2CNc2ncccc2C#N)CC1,-10.7
18,CNC(=O)c1ccc(C(=O)N2CCCC(n3ccnc3)C2)cn1 (stereo not given),-15.9
19,O=C(c1cc(C2CCCCN2CCO)n[nH]1)N1CCOCC1 (stereo not given),-9.24
20,CC(CNC(=O)c1cccc(-n2cccn2)c1)Cn1ccnc1 (stereo not given),2.48
21,c1ccc(C[C@H]2[C@H](N3CCOCC3)CCN2Cc2cccnc2)cc1,2.51
22,CCOCCOC(C)C(=O)Nc1ccc2c(ccn2CC)c1 (stereo not given),-6.19
23,O=C(O)C1(Oc2ccc3ccccc3c2)CCN(c2ccncc2)CC1,21.4
